Test results reported in patent US10752690B2, “Biologically active molecule conjugates, reagents and methods of manufacture, and therapeutic uses” (REGENERON PHARMACEUTICALS, INC., priority 2014, dated 2020).
Residues, ends and D or L forms follow the SMILES beside them.

How the values were obtained:
Format in all cases: cell-based
HEK293 = experiment: In vitro cytotoxicity assay (CCK8 cell viability), native HEK293 cells (no target expressed); settings: Homo sapiens, HEK293, 72 h
Experimental: (§1) Cells were seeded in Nunclon Delta Surface 96 well plates at 1000 (HEK293 and HEK293/PRLR) or 6000 (T47D) cells per well, and cells were grown overnight in complete growth media. For cell viability curves, serially diluted conjugates or free representative payloads were added to the cells at final concentrations ranging from 100 nM to 5 pM and incubated for 3 days. To measure viability, cells were incubated with CCK8 (Dojindo) for the final 1-3 hours and the absorbance at 450 nm (OD450) was determined on a Victor X4 (PerkinElmer). Background OD450 levels (CCK8) from digitonin ([…]) treated cells were subtracted from all wells and viability is expressed as a percentage of the untreated controls. IC50 values were determined from a four-parameter logistic equation over a 10-point response curve (GraphPad Prism). Maytansinoid conjugate curves and IC50 values are corrected for payload equivalents based on the UV DAR value. For the auristatin (MMAF) conjugate, the IC50 values are assigned a DAR of 1 (i.e., equal to antibody concentration) since a good estimate cannot be obtained by UV or mass spectrometry.

HEK293/hPRLR = experiment: In vitro cytotoxicity assay (CCK8 cell viability), engineered HEK293/hPRLR cells; settings: Homo sapiens, HEK293, 72 h
Experimental: as §1

T47D = experiment: In vitro cytotoxicity assay (CCK8 cell viability), endogenous cell line T47D; settings: Homo sapiens, 72 h
Experimental: as §1

Measured: IC50

CC[C@H](C)[C@@H]([C@@H](CC(=O)N1CCC[C@H]1[C@H](OC)[C@@H](C)C(=O)N[C@@H](Cc1ccccc1)C(=O)O)OC)N(C)C(=O)[C@@H](NC(=O)[C@@H](NC)C(C)C)C(C)C [compound 27, Monomethyl Auristatin F] (HELM PEPTIDE1{[meV].V.[CC[C@H](C)[C@@H]([C@@H](CC(=O)[*:2])OC)N(C)[*:1]].[CO[C@H]([C@@H](C)C(=O)[*:2])[C@@H]1CCCN1[*:1]].F}$$$$V2.0)
> 100 nM: all assays above
